# Experimental data as given in US10694746B2, “Fungicidal composition” (JIANGSU HUIFENG BIO AGRICULTURE CO., LTD., priority 2016, dated 2020).
# Tests used:
# Assay type in all cases: in vivo
# [1] = test system: apple anthracnose; test: Toxicity test of BBIT combined with mancozeb on apple anthracnose (bioassay); conditions: for ATI (actual toxicity index): (EC50 of standard/EC50 of test agent)*100, standard BBIT; for EC50: apple anthracnose
# [2] = test system: potato late blight; conditions: for ATI (actual toxicity index): (EC50 of standard/EC50 of test agent)*100, standard MBIT; for EC50: potato late blight
# [3] = test system: cucumber downy mildew; test: Toxicity test of BIT combined with mancozeb on cucumber downy mildew (bioassay); conditions: for ATI (actual toxicity index): (EC50 of standard/EC50 of test agent)*100, standard BIT; for EC50: cucumber downy mildew
Compound,ATI (actual toxicity index) [1],EC50 [1] [µg/mL],ATI (actual toxicity index) [2],EC50 [2] [µg/mL],ATI (actual toxicity index) [3],EC50 [3] [µg/mL]
"CCCCn1sc2ccccc2c1=O [BBIT, 2-n-butyl-1,2-benzisothiazolin-3-one]",100,19.09,,,,
"Cn1sc2ccccc2c1=O [MBIT, 2-methyl-1,2-benzisothiazolin-3-one]",,,100.00,14.81,,
"O=c1[nH]sc2ccccc12 [BIT, 1,2-benzisothiazolin-3-one]",,,,,100.00,13.5
mancozeb,20.67,92.36,21.69,68.27,17.96,75.17
